Data: PubChem BioAssay AID330 (DTP/NCI, 2004)
“And” between values parts separate entries of the source, which are not always exact repeats. Equal values may be shown once. Inconclusive results and toxic doses are left out.

Test system: P388 leukemia ip, CD2F1 mice, survival T/C
Assay: NCI In Vivo Anticancer Drug Screen. Data for tumor model P388 Leukemia (intraperitoneal) in CD2F1 (CDF1) mice
Conditions: endpoint: median survival time, higher = longer survival
Method in brief: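 Mice carrying the transplanted tumor received test compound or vehicle. Survival was recorded in each group, and the value is the treated-group measurement divided by that of the vehicle-treated control group.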

[1] = dose: 100.0 mg/kg/injection, schedule: Q01DX009 (ip), vehicle: Klucel (hydroxypropylcellulose) (HPC)
[2] = dose: 200.0 mg/kg/injection, schedule: Q01DX009 (ip), vehicle: Klucel (hydroxypropylcellulose) (HPC)
[3] = dose: 400.0 mg/kg/injection, schedule: Q01DX009 (ip), vehicle: Klucel (hydroxypropylcellulose) (HPC)
[4] = dose: 50.0 mg/kg/injection, schedule: Q01DX009 (ip), vehicle: saline with Tween-80
[5] = dose: 100.0 mg/kg/injection, schedule: Q01DX009 (ip), vehicle: saline with Tween-80
[6] = dose: 200.0 mg/kg/injection, schedule: Q01DX009 (ip), vehicle: saline with Tween-80

Q: How did the T/C (dose: 25.0 mg/kg/injection, schedule: Q04DX002 (ip), vehicle: DMSO) turn out when CS/C(=C(\C#N)C(N)=O)N1CC1 was run?
A: 94 % of control

Q: And the T/C (dose: 50.0 mg/kg/injection, schedule: Q04DX002 (ip), vehicle: DMSO)?
A: 100 % of control

Q: What about the T/C (dose: 100.0 mg/kg/injection, schedule: Q04DX002 (ip), vehicle: DMSO) of the same compound?
A: 102 % of control and 95 % of control

Q: And the T/C (dose: 200.0 mg/kg/injection, schedule: Q04DX002 (ip), vehicle: DMSO)?
A: 100 % of control

Q: What does the source list for CCCCCCCC/C=C\CCCCCCCCCCCC(=O)O?
A: T/C (dose: 50.0 mg/kg/injection, schedule: Q01DX009 (ip), vehicle: Klucel (hydroxypropylcellulose) (HPC)): 100 % of control; T/C (dose: 50.0 mg/kg/injection, schedule: Q01DX009 (ip), vehicle: other): 100 % of control; T/C [1]: 92 % of control; T/C (dose: 100.0 mg/kg/injection, schedule: Q01DX009 (ip), vehicle: other): 106 % of control; T/C [2]: 91 % of control; T/C (dose: 200.0 mg/kg/injection, schedule: Q01DX009 (ip), vehicle: other): 102 % of control; T/C [3]: 98 % of control; T/C (dose: 400.0 mg/kg/injection, schedule: Q01DX009 (ip), vehicle: other): 94 % of control

Q: With COc1ccc2c(c1)NC(c1ccc(C(N)=S)cc1)N2 (stereo not drawn) as the compound, how does the T/C (dose: 100.0 mg/kg/injection, schedule: Q04DX002 (ip), vehicle: saline with Tween-80) read?
A: 89 % of control

Q: And the T/C (dose: 200.0 mg/kg/injection, schedule: Q04DX002 (ip), vehicle: saline with Tween-80)?
A: 87 % of control

Q: And the T/C (dose: 400.0 mg/kg/injection, schedule: Q04DX002 (ip), vehicle: saline with Tween-80)?
A: 88 % of control

Q: Which results are given for NS(=O)(=O)c1c[n+]([O-])ccc1Cl?
A: T/C [4]: 100 % of control; T/C [5]: 100 % of control; T/C [6]: 100 % of control

Q: For O=C(Nc1ccc(Cl)cc1)N1c2ccccc2SC1c1ccco1 (stereo not drawn), which T/C (dose: 50.0 mg/kg/injection, schedule: Q01DX005 (ip), vehicle: saline with Tween-80) is on record?
A: 89 % of control

Q: And the T/C (dose: 100.0 mg/kg/injection, schedule: Q01DX005 (ip), vehicle: saline with Tween-80)?
A: 88 % of control

Q: And the T/C (dose: 200.0 mg/kg/injection, schedule: Q01DX005 (ip), vehicle: saline with Tween-80)?
A: 87 % of control

Q: How did the T/C (dose: 50.0 mg/kg/injection, schedule: Q01DX009 (ip), vehicle: distilled water + alcohol) turn out when CC(=O)Nc1ccc2c(C)ccnc2c1 was run?
A: 103 % of control

Q: What about the T/C (dose: 100.0 mg/kg/injection, schedule: Q01DX009 (ip), vehicle: distilled water + alcohol) of the same compound?
A: 104 % of control

Q: What about the T/C (dose: 200.0 mg/kg/injection, schedule: Q01DX009 (ip), vehicle: distilled water + alcohol) of the same compound?
A: 105 % of control

Q: For Cc1ccc(S(=O)(=O)CC(=O)c2ccccc2)cc1, which T/C [1] is on record?
A: 108 % of control

Q: What about the T/C [2] of the same compound?
A: 108 % of control

Q: And the T/C [3]?
A: 104 % of control

Q: What does the source list for CCOC(=O)C[P+](c1ccccc1)(c1ccccc1)c1ccccc1?
A: T/C (dose: 3.3 mg/kg/injection, schedule: Q01DX009 (ip), vehicle: saline sonified): 95 % of control; T/C (dose: 6.25 mg/kg/injection, schedule: Q01DX009 (ip), vehicle: saline sonified): 90 % of control; T/C (dose: 12.5 mg/kg/injection, schedule: Q01DX009 (ip), vehicle: saline sonified): 100 % of control; T/C (dose: 25.0 mg/kg/injection, schedule: Q01DX009 (ip), vehicle: saline sonified): 100 % of control

Q: What does the source list for N#CN1C2C=CC(c3ccccc3)NC21 (stereo not drawn)?
A: T/C [4]: 100 % of control; T/C [5]: 96 % of control

Q: What does the source list for COC(=O)Nc1nc2ccccc2[nH]1?
A: T/C (dose: 20.0 mg/kg/injection, schedule: Q04DX003 (ip), vehicle: other): 101 % of control; T/C (dose: 20.0 mg/kg/injection, schedule: Q04DX003 (oral), vehicle: other): 100 % of control; T/C (dose: 40.0 mg/kg/injection, schedule: Q04DX003 (ip), vehicle: other): 100 % of control; T/C (dose: 40.0 mg/kg/injection, schedule: Q04DX003 (oral), vehicle: other): 101 % of control; T/C (dose: 80.0 mg/kg/injection, schedule: Q04DX003 (ip), vehicle: other): 101 % of control; T/C (dose: 80.0 mg/kg/injection, schedule: Q04DX003 (oral), vehicle: other): 101 % of control; T/C (dose: 160.0 mg/kg/injection, schedule: Q04DX003 (ip), vehicle: other): 107 % of control; T/C (dose: 160.0 mg/kg/injection, schedule: Q04DX003 (oral), vehicle: other): 105 % of control; T/C (dose: 320.0 mg/kg/injection, schedule: Q04DX003 (ip), vehicle: other): 102 % of control; T/C (dose: 320.0 mg/kg/injection, schedule: Q04DX003 (oral), vehicle: other): 100 % of control; T/C (dose: 640.0 mg/kg/injection, schedule: Q04DX003 (ip), vehicle: other): 111 % of control; T/C (dose: 640.0 mg/kg/injection, schedule: Q04DX003 (oral), vehicle: other): 102 % of control

Q: Which results are given for NNCCO?
A: T/C (dose: 3.12 mg/kg/injection, schedule: Q01DX009 (ip), vehicle: saline with Tween-80): 108 % of control; T/C (dose: 6.25 mg/kg/injection, schedule: Q01DX009 (ip), vehicle: saline with Tween-80): 99 % of control and 100 % of control; T/C (dose: 12.5 mg/kg/injection, schedule: Q01DX009 (ip), vehicle: saline with Tween-80): 99 % of control and 103 % of control; T/C (dose: 25.0 mg/kg/injection, schedule: Q01DX009 (ip), vehicle: saline with Tween-80): 100 % of control and 104 % of control; T/C [4]: 100 % of control

Q: How did the T/C (dose: 37.5 mg/kg/injection, schedule: Q01DX009 (ip), vehicle: saline with Tween-80) turn out when C=CCNC(=O)/C=C\C(=O)O was run?
A: 98 % of control

Q: And the T/C (dose: 75.0 mg/kg/injection, schedule: Q01DX009 (ip), vehicle: saline with Tween-80)?
A: 94 % of control

Q: And the T/C (dose: 150.0 mg/kg/injection, schedule: Q01DX009 (ip), vehicle: saline with Tween-80)?
A: 94 % of control

Q: What about the T/C (dose: 300.0 mg/kg/injection, schedule: Q01DX009 (ip), vehicle: saline with Tween-80) of the same compound?
A: 100 % of control

Q: Which T/C [4] does the source give for COc1cccc(/C=N/NC(=O)N/N=C/c2cccc(OC)c2O)c1O here?
A: 92 % of control

Q: And the T/C [5]?
A: 100 % of control

Q: And the T/C [6]?
A: 101 % of control

Q: And the T/C (dose: 400.0 mg/kg/injection, schedule: Q01DX009 (ip), vehicle: saline with Tween-80)?
A: 95 % of control

Q: For [Cl][Pt+2][Cl].[NH-]CC1(C[NH-])CCC1, which T/C (dose: 0.38 mg/kg/injection, schedule: Q01DX009 (ip), vehicle: saline) is on record?
A: 114 % of control

Q: What about the T/C (dose: 0.38 mg/kg/injection, schedule: Q01DX009 (ip), vehicle: suspension in saline) of the same compound?
A: 161 % of control

Q: And the T/C (dose: 0.75 mg/kg/injection, schedule: Q01DX009 (ip), vehicle: suspension in saline)?
A: 215 % of control

Q: What about the T/C (dose: 1.5 mg/kg/injection, schedule: Q01DX005 (ip), vehicle: saline) of the same compound?
A: 175 % of control

Q: What about the T/C (dose: 1.5 mg/kg/injection, schedule: Q01DX005 (ip), vehicle: suspension in saline) of the same compound?
A: 161 % of control

Q: What about the T/C (dose: 1.5 mg/kg/injection, schedule: Q01DX009 (ip), vehicle: saline) of the same compound?
A: 165 % of control

Q: And the T/C (dose: 1.5 mg/kg/injection, schedule: Q01DX009 (ip), vehicle: suspension in saline)?
A: 247 % of control

Q: What about the T/C (dose: 3.0 mg/kg/injection, schedule: Q01DX005 (ip), vehicle: saline) of the same compound?
A: 202 % of control

Q: What about the T/C (dose: 3.0 mg/kg/injection, schedule: Q01DX005 (ip), vehicle: suspension in saline) of the same compound?
A: 191 % of control

Q: And the T/C (dose: 3.0 mg/kg/injection, schedule: Q01DX009 (ip), vehicle: saline)?
A: 243 % of control

Q: And the T/C (dose: 3.0 mg/kg/injection, schedule: Q01DX009 (ip), vehicle: suspension in saline)?
A: 159 % of control

Q: What about the T/C (dose: 6.0 mg/kg/injection, schedule: Q01DX005 (ip), vehicle: saline) of the same compound?
A: 112 % of control

Q: What about the T/C (dose: 6.0 mg/kg/injection, schedule: Q01DX005 (ip), vehicle: suspension in saline) of the same compound?
A: 198 % of control

Q: What about the T/C (dose: 6.0 mg/kg/injection, schedule: Q01DX009 (ip), vehicle: saline) of the same compound?
A: 215 % of control

Q: What about the T/C (dose: 6.0 mg/kg/injection, schedule: Q01DX009 (ip), vehicle: suspension in saline) of the same compound?
A: 119 % of control

Q: What does the source list for CC(C)NC(=O)OCc1c(COC(=O)NC(C)C)c(-c2ccc(Cl)c(Cl)c2)n2c1CC(OC(=O)CN(C)C)C2 (stereo not drawn)?
A: T/C (dose: 2.5 mg/kg/injection, schedule: Q01DX009 (ip), vehicle: water): 101 % of control; T/C (dose: 5.0 mg/kg/injection, schedule: Q01DX009 (ip), vehicle: distilled water + Tween-80): 111 % of control; T/C (dose: 5.0 mg/kg/injection, schedule: Q01DX009 (ip), vehicle: water): 117 % of control; T/C (dose: 10.0 mg/kg/injection, schedule: Q01DX009 (ip), vehicle: distilled water + Tween-80): 122 % of control; T/C (dose: 80.0 mg/kg/injection, schedule: Q01DX009 (ip), vehicle: water): 110 % of control

Q: How did the T/C (dose: 25.0 mg/kg/injection, schedule: Q01DX009 (ip), vehicle: water) turn out when CC(=O)C1CC(=O)c2c(O)ccc(O)c2C1 (stereo not drawn) was run?
A: 94 % of control

Q: And the T/C (dose: 50.0 mg/kg/injection, schedule: Q01DX009 (ip), vehicle: water)?
A: 96 % of control

Q: What about the T/C (dose: 100.0 mg/kg/injection, schedule: Q01DX009 (ip), vehicle: water) of the same compound?
A: 89 % of control

Q: What about the T/C (dose: 200.0 mg/kg/injection, schedule: Q01DX009 (ip), vehicle: water) of the same compound?
A: 111 % of control

Q: And the T/C (dose: 400.0 mg/kg/injection, schedule: Q01DX009 (ip), vehicle: water)?
A: 109 % of control
